# Reference: patent US10981926B2 (Janssen Pharmaceutica NV, priority 2016, dated 2021)
# Experiments:
# Format in all cases: cell-based
# [1] = molecular target: T1, wild-type Androgen Receptor (AR-wt) (Homo sapiens (Human), UniProt P10275); experiment: LNCaP-AR-wt AG reporter assay (agonist mode); conditions: for EC50: agonist mode, pEC50 = −Log10(EC50 in Molar), read-out: LNCaP-AR-wt AG pEC50 (converted); for Emax: maximum % stimulation (agonist response) over the tested concentration range, read-out: LNCaP-AR-wt AG MAX % Stim
# T1 sequence (P10275 whole entry): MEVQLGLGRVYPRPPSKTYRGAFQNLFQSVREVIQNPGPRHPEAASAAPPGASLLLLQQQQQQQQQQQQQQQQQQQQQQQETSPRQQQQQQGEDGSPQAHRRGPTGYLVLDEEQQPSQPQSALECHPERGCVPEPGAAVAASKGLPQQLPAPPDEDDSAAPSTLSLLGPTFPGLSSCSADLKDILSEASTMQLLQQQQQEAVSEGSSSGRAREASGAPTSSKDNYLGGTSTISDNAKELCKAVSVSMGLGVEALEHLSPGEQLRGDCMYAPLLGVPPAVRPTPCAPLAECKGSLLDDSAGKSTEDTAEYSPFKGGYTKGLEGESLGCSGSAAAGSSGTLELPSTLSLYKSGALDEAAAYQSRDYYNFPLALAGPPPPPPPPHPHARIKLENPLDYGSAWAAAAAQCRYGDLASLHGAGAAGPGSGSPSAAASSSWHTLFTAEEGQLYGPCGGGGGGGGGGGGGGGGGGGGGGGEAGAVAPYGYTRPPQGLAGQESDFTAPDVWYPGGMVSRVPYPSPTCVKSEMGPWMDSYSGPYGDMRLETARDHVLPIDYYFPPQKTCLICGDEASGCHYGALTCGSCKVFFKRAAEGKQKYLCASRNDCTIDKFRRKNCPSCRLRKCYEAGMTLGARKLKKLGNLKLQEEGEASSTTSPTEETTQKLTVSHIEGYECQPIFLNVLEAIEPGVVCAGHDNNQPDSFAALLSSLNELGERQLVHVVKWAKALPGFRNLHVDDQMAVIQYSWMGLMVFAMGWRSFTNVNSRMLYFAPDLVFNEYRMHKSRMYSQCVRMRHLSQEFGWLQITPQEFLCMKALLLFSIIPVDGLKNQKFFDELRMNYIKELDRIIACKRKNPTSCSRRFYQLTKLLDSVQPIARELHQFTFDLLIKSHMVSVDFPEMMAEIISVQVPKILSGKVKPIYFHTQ
# [2] = molecular target: T2, F876L mutant Androgen Receptor (AR-F876L) (Homo sapiens (Human), UniProt P10275, F877L); experiment: LNCaP-AR-F876L AG reporter assay (agonist mode); conditions: for EC50: agonist mode, pEC50 = −Log10(EC50 in Molar), read-out: LNCaP-AR-F876L AG pEC50 (converted); for Emax: maximum % stimulation (agonist response) over the tested concentration range, read-out: LNCaP-AR-F876L AG MAX % Stim
# T2 sequence (P10275 whole entry F877L): as the sequence (P10275 whole entry) above, with F877L counted along it
# [3] = molecular target: T1, wild-type Androgen Receptor (AR-wt); experiment: LNCaP-AR-wt ANT reporter assay (antagonist mode); conditions: for IC50: antagonist mode, pIC50 = −Log10(IC50 in Molar), read-out: LNCaP-AR-wt ANT pIC50 (converted); for Emax: maximum % inhibition of R1881 control response over the tested concentration range, read-out: LNCaP-AR-wt ANT MAX % Inh
# [4] = molecular target: T2, F876L mutant Androgen Receptor (AR-F876L); experiment: LNCaP-AR-F876L ANT reporter assay (antagonist mode); conditions: for IC50: antagonist mode, pIC50 = −Log10(IC50 in Molar), read-out: LNCaP-AR-F876L ANT pIC50 (converted); for Emax: maximum % inhibition of R1881 control response over the tested concentration range, read-out: LNCaP-AR-F876L ANT MAX % Inh
SMILES,EC50 [1] [µM],Emax [1] [%],EC50 [2] [µM],Emax [2] [%],IC50 [3] [nM],Emax [3] [%],IC50 [4] [nM],Emax [4] [%]
"CN1CC2CCC(C1)C2Oc1ccc(N2C(=S)N(c3cnc(C#N)c(C(F)(F)F)c3)C(=O)C23CCC3)cn1 (stereo not shown) [Cpd 147, 5-[8-[6-[(3-methyl-3-azabicyclo[3.2.1]octan-8-yl)oxy]-3-pyridyl]-5-oxo-7-thioxo-6,8-diazaspiro[3.4]octan-6-yl]-3-(trifluoromethyl)pyridine-2-carbonitrile]",> 15.1,-0.1,> 15.1,-0.1,224,102,209,101
"N#Cc1ncc(N2C(=O)C3(CCC3)N(c3ccc(OC4CC5CC4CN5)cc3)C2=S)cc1C(F)(F)F [Cpd 150, (R,S)-5-[8-[4-(2-azabicyclo[2.2.1]heptan-5-yloxy)phenyl]-5-oxo-7-thioxo-6,8-diazaspiro[3.4]octan-6-yl]-3-(trifluoromethyl)pyridine-2-carbonitrile]",> 15.1,0.4,> 15.1,-0.2,490,102,245,103
"CC(C)(C)OC(=O)N1CCC12CC(Oc1ccc(N3C(=S)N(c4cnc(C#N)c(C(F)(F)F)c4)C(=O)C34CCC4)cn1)C2 (stereo not shown) [Cpd 153, tert-butyl 6-[[5-[6-[6-cyano-5-(trifluoromethyl)-3-pyridyl]-5-oxo-7-thioxo-6,8-diazaspiro[3.4]octan-8-yl]-2-pyridyl]oxy]-3-azaspiro[3.3]heptane-3-carboxylate]",> 15.1,0.1,> 15.1,-0.1,398,101,339,100
"N#Cc1ncc(N2C(=O)C3(CCC3)N(c3ccc4[nH]ncc4c3)C2=S)cc1Cl [Cpd 155, 3-chloro-5-[8-(1H-indazol-5-yl)-5-oxo-7-thioxo-6,8-diazaspiro[3.4]octan-6-yl]pyridine-2-carbonitrile]",> 15.1,1.1,> 15.1,2.6,302,97.4,219,98
"N#Cc1ncc(N2C(=O)C3(CCC3)N(c3ccc(OC4CCN5CCCC5C4)cc3)C2=S)cc1C(F)(F)F (stereo not shown) [Cpd 156, 5-[8-[4-(1,2,3,5,6,7,8,8a-octahydroindolizin-7-yloxy)phenyl]-5-oxo-7-thioxo-6,8-diazaspiro[3.4]octan-6-yl]-3-(trifluoromethyl)pyridine-2-carbonitrile]",> 15.1,1,> 15.1,0.9,282,100,178,101
"N#Cc1ncc(N2C(=O)C3(CCC3)N(c3ccc(OC4CCN(CC(O)CN)CC4)cc3)C2=S)cc1C(F)(F)F (stereo not shown) [Cpd 157, 5-[8-[4-[[1-(3-amino-2-hydroxy-propyl)-4-piperidyl]oxy]phenyl]-5-oxo-7-thioxo-6,8-diazaspiro[3.4]octan-6-yl]-3-(trifluoromethyl)pyridine-2-carbonitrile]",> 15.1,-0.2,> 15.1,0,724,102,501,99.8
"N#Cc1ncc(N2C(=O)C3(CCC3)N(c3ccc4c(cnn4CCO)c3)C2=S)cc1C(F)(F)F [Cpd 159, 5-[8-[1-(2-hydroxyethyl)indazol-5-yl]-5-oxo-7-thioxo-6,8-diazaspiro[3.4]octan-6-yl]-3-(trifluoromethyl)pyridine-2-carbonitrile]",> 15.1,0.2,> 15.1,0.2,1350,100,309,100
"COCCn1ncc2ccc(N3C(=S)N(c4cnc(C#N)c(C(F)(F)F)c4)C(=O)C34CCC4)cc21 [Cpd 160, 5-[8-[1-(2-methoxyethyl)indazol-6-yl]-5-oxo-7-thioxo-6,8-diazaspiro[3.4]octan-6-yl]-3-(trifluoromethyl)pyridine-2-carbonitrile]",> 15.1,0.1,> 15.1,0,1230,103,708,101
"N#Cc1ncc(N2C(=O)C3(CCC3)N(c3ccc4c(cnn4CCO)c3)C2=S)cc1Cl [Cpd 163, 3-chloro-5-[8-[1-(2-hydroxyethyl)indazol-5-yl]-5-oxo-7-thioxo-6,8-diazaspiro[3.4]octan-6-yl]pyridine-2-carbonitrile]",> 15.1,0.4,> 15.1,0.1,724,100,288,99.3
"COc1cc(N2C(=O)C3(CCC3)N(c3ccc4nn(CCO)cc4c3)C2=S)cnc1C#N [Cpd 164, 5-[8-[2-(2-hydroxyethyl)indazol-5-yl]-5-oxo-7-thioxo-6,8-diazaspiro[3.4]octan-6-yl]-3-methoxy-pyridine-2-carbonitrile]",> 15.1,0.3,> 15.1,0,537,102,295,101
"N#Cc1ncc(N2C(=O)C3(CCC3)N(c3ccc(OC4CC5CC4CN5)nc3)C2=S)cc1C(F)(F)F [Cpd 165, (R,S)-5-[8-[6-(2-azabicyclo[2.2.1]heptan-5-yloxy)-3-pyridyl]-5-oxo-7-thioxo-6,8-diazaspiro[3.4]octan-6-yl]-3-(trifluoromethyl)pyridine-2-carbonitrile]",> 15.1,0.2,> 15.1,0,324,101,316,100
"CN1CCC12CC(Oc1ccc(N3C(=S)N(c4cnc(C#N)c(C(F)(F)F)c4)C(=O)C34CCC4)cc1)C2 (stereo not shown) [Cpd 166, 5-[8-[4-[(3-methyl-3-azaspiro[3.3]heptan-6-yl)oxy]phenyl]-5-oxo-7-thioxo-6,8-diazaspiro[3.4]octan-6-yl]-3-(trifluoromethyl)pyridine-2-carbonitrile]",> 15.1,0.2,> 15.1,0.1,331,102,200,101
"COc1cc(N2C(=O)C3(CCC3)N(c3ccc4c(cnn4CCO)c3)C2=S)cnc1C#N [Cpd 167, 5-[8-[1-(2-hydroxyethyl)indazol-5-yl]-5-oxo-7-thioxo-6,8-diazaspiro[3.4]octan-6-yl]-3-methoxy-pyridine-2-carbonitrile]",> 15.1,-0.2,> 15.1,0,832,101,288,102
"Cn1ncc2cc(N3C(=S)N(c4cnc(C#N)c(Cl)c4)C(=O)C34CCC4)ccc21 [Cpd 168, 3-chloro-5-[8-(1-methylindazol-5-yl)-5-oxo-7-thioxo-6,8-diazaspiro[3.4]octan-6-yl]pyridine-2-carbonitrile]",> 15.1,0,> 15.1,0.8,95.5,101,145,99.3
"COCCn1ncc2cc(N3C(=S)N(c4cnc(C#N)c(C(F)(F)F)c4)C(=O)C34CCC4)ccc21 [Cpd 170, 5-[8-[1-(2-methoxyethyl)indazol-5-yl]-5-oxo-7-thioxo-6,8-diazaspiro[3.4]octan-6-yl]-3-(trifluoromethyl)pyridine-2-carbonitrile]",> 15.1,0.2,> 15.1,0.1,589,101,309,102
"COCCn1ncc2cc(N3C(=S)N(c4cnc(C#N)c(OC)c4)C(=O)C34CCC4)ccc21 [Cpd 173, 3-methoxy-5-[8-[1-(2-methoxyethyl)indazol-5-yl]-5-oxo-7-thioxo-6,8-diazaspiro[3.4]octan-6-yl]pyridine-2-carbonitrile]",> 15.1,0.4,> 15.1,0.1,437,100,186,100
"CN1CC2CC1CC2Oc1ccc(N2C(=S)N(c3cnc(C#N)c(C(F)(F)F)c3)C(=O)C23CCC3)cc1 [Cpd 176, (R,S)-5-[8-[4-[(2-methyl-2-azabicyclo[2.2.1]heptan-5-yl)oxy]phenyl]-5-oxo-7-thioxo-6,8-diazaspiro[3.4]octan-6-yl]-3-(trifluoromethyl)pyridine-2-carbonitrile]",> 15.1,0.3,> 15.1,0.1,479,104,269,101
